Reference: ChEMBL document CHEMBL1124341, “1',2'-seco-dideoxynucleosides as potential anti-HIV agents” (J Med Chem, 1989)

What was measured:
ATH-8 cell line [1] = test: Tested against ATH8 cells infected with HIV (2 x 10 e3 virus partials per cell) at concentrations ranging from 1 to 100 µM; No protection; assay type: functional, cell-based; details: Homo sapiens
ATH-8 cell line [2] = test: Tested against ATH8 cells infected with HIV (2 x 10 e3 virus partials per cell) at concentration of 20 µM; Completely protected; assay type: functional, cell-based; details: Homo sapiens

| Structure (SMILES) | Activity (ATH-8 cell line [1]) | Activity (ATH-8 cell line [2]) |
| --- | --- | --- |
| CCC(CO)OCn1cnc2c(O)ncnc21 (stereo not given) | No protection | – |
| Nc1ncnc2c1ncn2[C@H]1CC[C@@H](CO)O1 | – | Completely protected |
| CCC(CO)OCn1ccc(N)nc1=O (stereo not given) | No protection | – |
| CCC(CO)OCn1cnc2c(N)ncnc21 (stereo not given) | No protection | – |
| CCC(CO)OCn1cnc2c(O)nc(N)nc21 (stereo not given) | No protection | – |
